Data taken from paper PMC11195807, “Development of a multi-targeted chemotherapeutic approach based on G-quadruplex stabilisation and carbonic anhydrase inhibition” (Journal of Enzyme Inhibition and Medicinal Chemistry, 2024).

Assays:
HeLa cells = experiment: MTT assay, HeLa cells under hypoxic conditions (CoCl2); assay type: cell-based
Description: Taking into consideration the good cytotoxicity of C-4,2 on cancer cells and its ability to stabilise GQ structures also in the cellular environment, we decided to further evaluate its antitumor potential by testing it under hypoxic conditions, when expression of high amounts of CA IX occurs. To this aim, HeLa cells were pre-treated for 60 h with a non-toxic concentration of cobalt(II) chloride hexahydrate (CoCl2, 50 μM, Figure S14, Supporting Information), which was employed as the chemical inducer of HIF-1α to establish hypoxia[70]^,[71]. After that, HeLa were exposed to increasing concentrations of C-4,2 or vehicle, for the following 12 h, still in the presence of CoCl2. […]
For the MTT experiments in the presence of normal oxygen levels, HeLa cells were seeded in 96-well plates at a density of 15,000 cells per well (culture medium volume – 100 μL/well) and incubated at 37 °C, for 24 h. […] Finally, the optical density of the samples (at 570 nm) was measured on an ELx800 Absorbance Microplate Reader (BioTek Instruments, Inc., Winooski, VT, USA). The percentage (%) of cell survival for each condition was calculated by using the following equation: % cell survival=OD− OD0/ODCONTROL− OD0×100 where OD is the optical density of the sample, OD0 is the optical density of the background signal, and ODCONTROL is the optical density of the control sample (cells treated with vehicle, 0.5% DMSO). […]

GQ structures = experiment: BG4 immunofluorescence of GQ foci, hypoxic HeLa cells; assay type: cell-based; settings: hypoxic HeLa cells (50 μM CoCl2 60 h), 1 µM C-4,2 for 12 h, vs DMSO-treated hypoxic cells
Description: Finally, we investigated C-4,2 capability to impact the formation of GQ structures even in hypoxic HeLa cells.
Figure 7. (A) Representative fields showing G4 foci formation detected by immunofluorescence in HeLa cells pre-treated with 50 μM cobalt (II) chloride hexahydrate for 60 h to induce hypoxia and then exposed to 1 µM C-4,2 or vehicle (0.1% DMSO) for the following 12 h, still in the presence of CoCl2. DMSO-treated normoxic HeLa cells are also shown. Scale bar: 10 µm. Upper panels: the merged channels of BG4-stained GQ structures (magenta) and Hoechst-counterstained nuclei (grey) are reported. Lower panels: enlargements from the pictures in the upper panels. (B) Quantification of the cellular BG4 foci in DMSO-treated normoxic HeLa cells, DMSO-treated hypoxic HeLa cells, and C-4,2-treated hypoxic HeLa cells. An average of 50 cells were screened for each condition. […] The statistical significance was calculated using a one-way ANOVA test on GraphPad Prism 8.0.2 (**: p < 0.01, ****: p < 0.0001).
For the IF experiments in the presence of normal oxygen levels, HeLa cells were seeded on sterile coverslips, in a 24-well plate, at a density of 90,000 cells per well, and incubated overnight. […] From there, the cellular and nuclear foci were segmented, and their number or fluorescence intensity was quantified by using the Image Analysis package of ZEISS ZEN 3.1 software.

## COc1ccc2cc3[n+](cc2c1OCCCCn1cc(COc2ccc4ccc(=O)oc4c2)nn1)CCc1cc2c(cc1-3)OCO2 [Compound 37, 10-Methoxy-9–(4-(4-(((2-oxo-2H-chromen-7-yl)oxy)methyl)-1H-1,2,3-triazol-1-yl)butoxy)-5,6-dihydro-[1,3]dioxolo[4,5-g]isoquinolino[3,2-a]isoquinolin-7-ium hexafluorophosphate]
HeLa cells; 12 h, hypoxia (CoCl2)
  cytotoxicity compared with co-exposure to equimolar berberine and C: greater
HeLa cells; Homo sapiens, 60 h pre-treatment with 50 μM CoCl2, then 12 h treatment, hypoxia
  IC50: 26.5 µM
GQ structures
  number of detectable GQs (BG4 foci): remarkable increase
